Our source for the GI50 and TGI values is PubChem BioAssay (NCI).

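Following 48 hours of exposure in 96-well plates, responses at five concentrations were used to interpolate endpoints linearly. The concentration for 50% growth inhibition is given as GI50. Definition used: TGI = concentration required for complete inhibition of growth.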 Where only a bound is given, the exact number is not on record here.

Holding throughout (test): NCI tumour cell line growth inhibition, 48 h
Assay [1] deals with HT29 colon.
The test system of assay [2] is SNB-19 CNS.
The subject of assay [3] is SF-268 CNS.
Assay [4] concerns A549 NSCLC.
In assay [5] the test system is PC-3 prostate.
For assay [6], the system named is LOX IMVI melanoma.
Assay [7] concerns OVCAR-8 ovarian.
Assay [8] relates to T-47D breast.
Assay [9] relates to ACHN renal.
Assay [10] relates to RXF 393 renal.

`N#Cc1ccccc1C#C/C=C\C#Cc1ccccc1N`: the GI50 was 4.38 µM in assay [1]; 7.17 µM in [2]; 9.12 µM in [3]; 6.95 µM in assay [4]; 5.99 µM in assay [5]; 4.04 µM in assay [6]. Besides, the GI50 in [7] was 7.27 µM; in [8] it was 8.72 µM; in [9], 7.88 µM; in [10] it was 7 µM. Also, the TGI in assay [1] is more than 100 µM; in [2], more than 100 µM; in assay [3], more than 56.2 µM; in assay [4] it was more than 100 µM; in assay [5], more than 75.9 µM; in assay [6], more than 35.4 µM. Moreover, the TGI was more than 30 µM in assay [7], more than 100 µM in [8], more than 38.3 µM in [9] and more than 23.7 µM in assay [10].

In the case of `Cc1ccc(OCC2=NC3S/C(=C/c4ccc([N+](=O)[O-])o4)C(=O)N3N2)cc1` (stereo not given), the TGI in assay [1] is 22.6 µM; in assay [2], 32.2 µM; in assay [3], 14.9 µM; in [4], 38.9 µM; in [5], 18.2 µM; in [6], 13.3 µM. The TGI in [7] turned out to be 14.3 µM; in [8], 5.39 µM; in assay [9], 3.14 µM; in assay [10] it was 28.5 µM.

In the case of `Cc1ccc2nc(-c3ccc(NC(=O)c4ccc(N)cc4)c(S(=O)(=O)O)c3)sc2c1`, the TGI in [1], in [2], in assay [3], in assay [4], in assay [5] and in [6] was more than 100 µM throughout. In addition, the TGI in assay [7], in assay [8], in [9] and in assay [10] was more than 100 µM each time.

Consider `Nc1cc(S(=O)(=O)O)cc2ccc(S(=O)(=O)O)cc12`, for which the TGI in assay [1], in assay [2], in assay [3], in [4], in [5] and in assay [6] was more than 100 µM in each case. Besides, the TGI in assay [7], in [8], in [9] and in [10] was more than 100 µM in each case.

On to `CCN1CCN(c2nc3ccccc3nc2C(=O)c2ccc(OC)c(OC)c2)CC1`, for which the TGI is 39.4 µM in assay [1]; 88.2 µM in assay [2]; more than 100 µM in [3]; 28.3 µM in assay [4]; more than 100 µM in assay [5]; 26.2 µM in [6]. Moreover, the TGI was 29.9 µM in assay [7], more than 100 µM in assay [8], 26.8 µM in assay [9] and 29.8 µM in assay [10].
